Molecules are shown by their SMILES. Where only a bound is given, the exact number is not on record here.

The test system of one data set is ARDS induced thrombosis. Put plainly: Rat venous stasis (Wessler) model after LPS-induced lung injury (ARDS induced thrombosis). It counts as in vivo, Sprague-Dawley rats. The following applies: 250 mg/kg oral gavage 3, 24, 48, 72 h post LPS instillation; rat venous stasis 30 min. An excerpt:
This study assessed the efficacy of ABC294640 to reduce the incidence of adverse thromboembolic events in situ in acute respiratory distress syndrome (ARDS) conditions using a rat venous stasis model. This assay is designed to measure thrombotic risks following LPS-induced lung injury. LPS-induced lung injury is one of the most commonly used rodent models for ARDS and was described to mimic the neutrophilic inflammatory response observed in ARDS patients. The mechanism of LPS-induced ARDS is based on damage to endothelial cells and a systemic inflammatory response. […]
Sprague-Dawley rats (male) weighing between 275 and 400 g were used for this study. […] The body weight was recorded before the instillation and 24, 48 and 72 hours post-instillation.
In this study, ARDS was induced by intratracheal instillation of LPS. […] The segment was then excised and its content scored. […]
• 1. Prior LPS or saline instillation, the functional respiratory parameters of all rat was assessed by whole-body plethysmography and SpO2 was evaluated on conscious rat with a collar probe pulse oximeter. […] The respiratory rate, the Penh and the inspiratory/expiratory time measurements was analyzed. • 2. […]
• 5. Rats were evaluated periodically to ensure animal well-being (general behavior and daily body weight). • 6. […] SpO2 and whole-body plethysmography were also evaluated 24, 48 and 72 hours post-instillation. • 8. […]

Data set [1] in a line: Physical description of opaganib drug substance (solubility, hygroscopicity). It counts as physicochemical.
Data set [2] deals with COVID-19 pneumonia (SARS-CoV-2). Put plainly: Randomized, double-blind, placebo-controlled Phase 2a study of opaganib in COVID-19 pneumonia. It counts as in vivo, human. An excerpt: This was a phase 2a, proof of concept, multi-center randomized double-blind, parallel arm, placebo-controlled study. After informed consent was obtained, patients entered a screening phase for no more than 3 days, to determine eligibility. […] Treatment assignments remained blinded to the patient, investigator and hospital staff, as well as the sponsor. As there was no consensus for a definitive treatment specifically targeting the SARS-CoV-2 virus causing COVID-19 (Wilson, 2020), standard of care referred to regional, institutional or physician directed therapies, that were implemented during the COVID-19 pandemic.
Study drug was to be administered every day for 14 days (Day 1 to Day 14), unless the patient had been discharged from the hospital without requiring supplemental oxygen, in which case study drug would only be administered to Day 10.
Two patients were randomized in each group but not treated. […] Two patients in the opaganib arm experienced adverse events such that study drug was terminated, while one placebo patient was terminated due to an adverse event.
The primary efficacy endpoint calculated for each patient the area under the curve of the supplemental oxygen requirement through day 14, using the trapezoidal rule after subtracting the baseline oxygen requirement at each day. Days where no supplementary oxygen was needed, were recorded as 0. If several values of oxygen requirement (L/min) are recorded in a certain day, for the primary analysis the highest of these values were taken. In the primary analysis, for patients who die before Day 14, or require intubation and mechanical ventilation, missing daily values were assigned the maximal supplemental oxygen flow requirement of 8 L/min. For patients discharged from hospital on supplemental oxygen prior to Day 14, if no values were collected by the site after discharge, the oxygen requirement (L/min) on the day of discharge were to be assigned thereafter for each day to Day 14.
Supplemental oxygen requirement up to Day 14 was collected even if a patient discontinued treatment prior to Day 14 but continued in the study to Day 14. Further, it was assumed that loss to follow up such that vital status up to Day 14 were missing is unlikely. Therefore, the primary analysis assumed that in case that all supplemental oxygen values are missing after treatment discontinuation, the last value is carried forward—until Day 14, or death, if occurred before. A sensitivity analysis to the above missing data handling approach was performed using an AUC summary statistics approach, in which groups AUC is calculated from the estimated parameters of a Repeated-Measures model.
Within the mITT cohort, two subjects withdrew their consent due to grade 1 gastrointestinal AEs.

For data set [3], the system named is human bronchial epithelial cells (HBEC). Particulars: highest concentration tested, 11.25 μg/ml.
Data set [4] has as its system SARS-CoV-2 clinical isolate (2019-nCoV/USA-WA1/2020). Kind of data set: Anti-viral activity against SARS-CoV-2 in human bronchial epithelial cell (HBEC, EpiAirway) air-liquid-interface cultures, viral titer by TCID50. It counts as cell-based.
Data set [5] concerns COVID-19 infection (SARS-CoV-2). Kind of data set: Pilot / compassionate use study of opaganib in patients hospitalized with COVID-19 pneumonia. It counts as in vivo, human. The protocol:
Patients entered a screening period of up to 1 week. Eligible patients entered the treatment period for up to 2 weeks. All participants were followed for 2 weeks after their last dose of study drug, at the end of the 2 week treatment period, or once they had 2 consecutive daily negative viral swabs for the COVID-19 virus or at after premature drug discontinuation prior to Day 14. The maximum duration of study participation was 35 days […].
Each dose is administered with food or 15-30 minutes after tube-feeding, where appropriate. […] These patients had moderate to severe COVID-19-related pneumonia with hypoxia on supplemental oxygen.
Five patients were included in the analysis, and for comparison purposes, we used a control group with same-sex, same-severity patients (baseline characteristics). Univariate comparisons between the groups were performed with chi-square test for categorical variables and t-test or MannWhitney U-test for continuous variables, as appropriate. Time variables were compared with Cox proportional hazard regression, adjusted for age and background illnesses. CRP and lymphocyte changes were compared utilizing a repeated measures general linear model with a Bonferroni correction for multiple comparison.

The mark [6] stands for this setting: of 6 moderate-to-severe patients treated, opaganib plus standard-of-care.

Regarding `O=C(NCc1ccncc1)C12CC3CC(C1)CC(c1ccc(Cl)cc1)(C3)C2` [ABC294640, 3-(4-chlorophenyl)-adamantane-1-carboxylic acid (pyridin-4-ylmethyl)amide], the “thrombosis (blood clot length, weight and total thrombus score)” value in the data set on ARDS induced thrombosis is listed as “reduction of thrombosis”.

For the compound `Cl.O=C(NCc1ccncc1)C12CC3CC(C1)CC(c1ccc(Cl)cc1)(C3)C2` [opaganib, 3-(4-chlorophenyl)-adamantane-1-carboxylic acid (pyridin-4-ylmethyl) amide, hydrochloride salt], the “solubility in water and ethyl acetate” value in data set [1] is “practically insoluble”. Moreover, the hygroscopicity entry in data set [1] (solid) was “non-hygroscopic”. Besides, in data set [2] (opaganib 500 mg Q12 h + standard of care, control arm 22.2%), the “proportion of patients reaching room air and no longer requiring oxygen support by Day 14” value is 52.6%. The “reduction from baseline of the medial total oxygen requirement (AUC) over 14 days” value in data set [2] (opaganib 500 mg Q12 h + standard of care, control arm 46.7%) is on record as 68.0%. Also, in data set [2] (opaganib 500 mg Q12 h + standard of care, control arm 55.6%), the “proportion of patients discharged by Day 14” value was determined as 73.7%. The “proportion of patients with 50% reduction in supplemental oxygen by day 14” value in data set [2] (opaganib 500 mg Q12 h + standard of care, control arm 66.7%) worked out at 89.5%. Also, the “patients with adverse events such that study drug was terminated” value in data set [2] (opaganib arm, one in placebo arm) is “Two”. Further, the “patients with serious adverse events (SAEs) vs placebo arm” value in data set [2] (opaganib treatment arm compared with placebo arm) is given as “fewer patients suffered from serious adverse events”. In addition, in data set [2] (vs placebo arm), the “safety (top-line)” value is “safe, with no material safety differences”. For the same compound, the cell viability result in data set [3] is “remained viable”. For the same compound, the “concentration at which complete inhibition of infectious virus production starts” value in data set [4] (SARS-CoV-2-infected HBEC, 3 days incubation) came to 1 µg/mL. Also, the infectious virus production entry in data set [4] (SARS-CoV-2-infected HBEC, 3 days incubation, 0.05 to 11.25 μg/ml) is “dose-dependent reduction”. For the same compound, in data set [4] (Severe acute respiratory syndrome coronavirus 2, Epithelial cell, read-out: inhibition of infectious virus production), the inhibition – broadly, how much of the control response was suppressed – at 0.05 µg/mL was > 90%. Moreover, the “HR for time to weaning from HFNC, cases vs. controls” value in data set [5] (Cox regression, 95% CI: 0.07-1.7, p=0.2) is listed as 0.3. Moreover, the “HR for time to ambient air, cases vs. controls” value in data set [5] (Cox regression, 95% CI: 0.15-1.5) is recorded as 0.4. The “Clinical Assessment” value is “Apr. 3, 2020; RA by 16/4. As of 22/4, one negative” in data set [5] (Patient 1 (14 d), started as severe on maximal OptiFlow Apr. 3, 2020, RA = room air); “Apr. 7, 2020; RA by Apr. 20, 2020, D/C on Apr. 22, 2020” in data set [5] (Patient 2 (14 d), started as severe+, planning for intubation Apr. 7, 2020, RA = room air, D/C = discharged); “Apr. 7, 200, D/C on Apr. 19, 2020” in data set [5] (Patient 3 (7 d), moderate-severe, on OptiFlow Apr. 13, 2020, D/C = discharged); “RA on Apr. 22, 2020” in data set [5] (Patient 4 (11 d), started severe+ 70% OptiFlow on Apr. 13, 2020, RA = room air); “opaganib; D/C on Apr. 14, 2020 on RA” in data set [5] (Patient 5 (2 d), started moderate on Apr. 13, 2020, nasal cannula, D/C = discharged, RA = room air). In addition, the “Lymphocytes, most recent” value was 2.8 (Apr. 17, 2020) 10^3/mm^3 in data set [5] (Patient 1 (14 d on opaganib), baseline 1.6, Apr. 17, 2020); 2.1 (Apr. 17, 2020) 10^3/mm^3 in data set [5] (Patient 2 (14 d on opaganib), baseline 1.1, Apr. 17, 2020); 1.2 (Apr. 17, 2020) 10^3/mm^3 in data set [5] (Patient 3 (7 d on opaganib), baseline 0.9, Apr. 17, 2020); 1 (Apr. 22, 2020) 10^3/mm^3 in data set [5] (Patient 4 (11 d on opaganib), baseline 1.2, Apr. 22, 2020); 1.96 (Apr. 24, 2020) 10^3/mm^3 in data set [5] (Patient 6 (5 d on opaganib), baseline 1.35, Apr. 24, 2020). For the same compound, the “CRP, most recent” value in data set [5] (Patient 1 (14 d on opaganib), baseline 15.1, Apr. 17, 2020) is listed as 1 (Apr. 17, 2020) mg/L; in data set [5] (Patient 2 (14 d on opaganib), baseline 14.2, Apr. 17, 2020), 4.8 (Apr. 17, 2020) mg/L; in data set [5] (Patient 3 (7 d on opaganib), baseline 10.7, Apr. 17, 2020), 1.7 (Apr. 17, 2020) mg/L; in data set [5] (Patient 4 (11 d on opaganib), baseline 24.8, Apr. 22, 2020), 17.4 (Apr. 22, 2020) mg/L; in data set [5] (Patient 6 (5 d on opaganib), baseline 12.2, Apr. 24, 2020), 6.8 (Apr. 24, 2020) mg/L. Moreover, the “adverse event leading to discontinuation” value in data set [5] (Patient 7, also on HCQ and azithromycin, may or may not be related to opaganib, all 3 meds stopped) was “Diarrhea the next day, all 3 meds were stopped, followed by worsening SOB, on 75% OptiFlow”. Also, in data set [5] (all 6 moderate to-severe patients (patient #7 excepted)), the clinical improvement entry is listed as “improved significantly”. For the same compound, the “C-Reactive Protein (CRP) change” value in data set [5] (all six patients) is on record as “reduction in C-Reactive Protein (CRP)”. In addition, the “time to ambient air” value in data set [5] (cases, controls 14.5 days) was determined as 13 days. For the same compound, the “median time to weaning from high-flow nasal cannula (HFNC)” value in data set [5] (cases, controls 15 days, p=0.2) was determined as 10 days. Moreover, the “cases requiring mechanical ventilation” value in data set [5] (compared with 33% of controls) was “none of the cases required mechanical ventilation”. Also, in data set [5] (five patients analysed vs same-sex, same-severity controls), the “increase in lymphocyte count vs matched control group” value was “significantly faster increase in lymphocyte count”. The “number of patients back to breathing room air” value in data set [5] (setting [6]) came out at 5 patients. Moreover, the “number of patients discharged from hospital” value in data set [5] (setting [6]) amounted to 3 patients. Moreover, in data set [5] (small cohort of severe COVID-19 patients), the safety and tolerability result was “safe and well tolerated”.
